Experimental data published in patent US11180488B2, “Isoxazole o-linked carbamoyl cyclohexyl acids as LPA antagonists” (BRISTOL-MYERS SQUIBB COMPANY, priority 2017, dated 2021).
Like-named read-outs stand apart in the source and are kept apart here.

Target: T1, human LPA1 (Homo sapiens, UniProt Q92633)
T1 construct: expressed in transfected cells; host or cells: Chinese hamster ovary (CHO) cells
Assay: LPA1 functional antagonist assay (LPA-induced calcium flux)
Type: cell-based
Details: CHO cells overexpressing human LPA1, calcium flux induced by 10 nM LPA
Description: The effectiveness of compounds of the present invention as LPA1 inhibitors can be determined in an LPA1 functional antagonist assay as follows:
Chinese hamster ovary cells overexpressing human LPA1 were plated overnight (15,000 cells/well) in poly-D-lysine coated 384-well microplates (Greiner bio-one, Cat #781946) in DMEM/F12 medium (Gibco, Cat #11039). Following overnight culture, cells were loaded with calcium indicator dye (AAT Bioquest Inc, Cat #34601) for 30 minutes at 37° C. The cells were then equilibrated to room temperature for 30 minutes before the assay. Test compounds solubilized in DMSO were transferred to 384 well non-binding surface plates (Corning, Cat #3575) using the Labcyte Echo acoustic dispense and diluted with assay buffer [1×HBSS with calcium/magnesium (Gibco Cat #14025-092), 20 mM HEPES (Gibco Cat #15630-080) and 0.1% fatty acid free BSA (Sigma Cat #A9205)] to a final concentration of 0.5% DMSO. Diluted compounds were added to the cells by FDSS6000 (Hamamatsu) at final concentrations ranging from 0.08 nM to 5 μM. and were then incubated for 20 min at room temperature at which time LPA (Avanti Polar Lipids Cat #857130C) was added at final concentrations of 10 nM to stimulate the cells. […] IC50 values were determined by fitting data to a 4-parameter logistic equation (GraphPad Prism, San Diego Calif.).

T1 sequence (Q92633 whole entry): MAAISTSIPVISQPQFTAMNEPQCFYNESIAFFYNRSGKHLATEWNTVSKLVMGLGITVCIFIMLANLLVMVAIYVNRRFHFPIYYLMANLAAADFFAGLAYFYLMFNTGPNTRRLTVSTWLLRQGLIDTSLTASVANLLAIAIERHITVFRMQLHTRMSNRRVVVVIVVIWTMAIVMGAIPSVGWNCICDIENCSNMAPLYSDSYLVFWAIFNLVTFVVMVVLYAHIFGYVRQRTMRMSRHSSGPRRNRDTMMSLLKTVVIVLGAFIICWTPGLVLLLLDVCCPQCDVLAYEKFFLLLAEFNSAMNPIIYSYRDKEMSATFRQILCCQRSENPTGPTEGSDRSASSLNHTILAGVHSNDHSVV

Row | SMILES | IC50 (read-out: hLPA1 IC50) | IC50 (read-out: LPA1 IC50)
1 | Cc1nc(-c2onc(C)c2COC(=O)N(C)C2(c3ccccc3)CC2)ccc1O[C@H]1CCC[C@H](C(=O)O)C1 [Example 16] | 93 nM | –
2 | Cc1noc(-c2ccc(OC3CCCC(c4nnn[nH]4)C3)cc2)c1COC(=O)N(C)C1CCCC1 (single isomer, unassigned) [Example 76, (5-(4-((3-(1H-tetrazol-5-yl)cyclohexyl)oxy)phenyl)-3-methylisoxazol-4-yl)methyl cyclopentyl(methyl)carbamate] | 2310 nM | –
3 | Cc1nc(-c2onc(C)c2COC(=O)N(C)C2CCCC2)ccc1O[C@H]1CCC[C@@H](C(=O)O)C1 [Example 39] | 27 nM | –
4 | Cc1noc(-c2cnc(O[C@H]3CCC[C@H](C(=O)O)C3)cn2)c1COC(=O)N(C)CCC(C)C [Example 56] | – | 150 nM
5 | Cc1nc(-c2onc(C)c2COC(=O)NC(C)(C)C)ccc1O[C@H]1CCC[C@H](C(=O)O)C1 [Example 60] | – | 166 nM
6 | Cc1noc(-c2ccc(OC3CCCC(c4nnn[nH]4)C3)cc2)c1COC(=O)N(C)C1CCCC1 (single isomer, unassigned) [Example 77, (5-(4-((3-(1H-tetrazol-5-yl)cyclohexyl)oxy)phenyl)-3-methylisoxazol-4-yl)methyl cyclopentyl(methyl)carbamate] | 379 nM | –
7 | Cc1noc(-c2ccc(OC3CCCC(c4nnn[nH]4)C3)cc2)c1COC(=O)N(C)C1CCCC1 (single isomer, unassigned) [Example 78, (5-(4-((3-(1H-tetrazol-5-yl)cyclohexyl)oxy)phenyl)-3-methylisoxazol-4-yl)methyl cyclopentyl(methyl)carbamate] | 565 nM | –
8 | CCCCN(C)C(=O)OC(C)c1c(C)noc1-c1ccc(O[C@H]2CCC[C@H](C(=O)O)C2)cc1 (stereo partly drawn) [Example 52] | 60 nM | –
9 | Cc1nc(-c2onc(C)c2COC(=O)N(C)Cc2ccccc2)ccc1O[C@H]1CCC[C@H](C(=O)O)C1 [Example 18] | 31 nM | –
10 | Cc1onc(-c2ccc(O[C@H]3CCC[C@H](C(=O)O)C3)nc2)c1COC(=O)N(C)C1CCCC1 [Example 54, (1S,3S)-3-((5-(4-(((cyclopentyl(methyl)carbamoyl)oxy)methyl)-5-methylisoxazol-3-yl)pyridin-2-yl)oxy)cyclohexane-1-carboxylic Acid] | 197 nM | –
11 | Cc1noc(-c2cnc(O[C@H]3CCC[C@H](C(=O)O)C3)cn2)c1COC(=O)N(C)C(C)C1CC1 (mixture of isomers) [Example 9, (±)-Trans-3-((5-(4-((((1-cyclopropylethyl)(methyl)carbamoyl)oxy)methyl)-3-methyl-isoxazol-5-yl)pyrazin-2-yl)oxy)cyclohexanecarboxylic Acid] | 85 nM | –
12 | Cc1noc(-c2ccc(O[C@H]3CCC[C@H](C(=O)O)C3)cc2)c1COC(=O)N(C)CCC1CC1 [Example 27] | 23 nM | –
13 | Cc1noc(-c2ccc(O[C@H]3CCC[C@H](C(N)=O)C3)cc2)c1COC(=O)N(C)C1CCCC1 (racemic) [Example 73, (±)-Trans-(5-(4-((3-carbamoylcyclohexyl)oxy)phenyl)-3-methylisoxazol-4-yl)methyl cyclopentyl(methyl)carbamate] | 1210 nM | –
14 | Cc1nc(-c2onc(C)c2COC(=O)N(C)[C@H](C)c2ccccc2)ccc1O[C@H]1CCC[C@H](C(=O)O)C1 [Example 62] | – | 17 nM
15 | Cc1noc(-c2ccc(O[C@H]3CCC[C@H](C(=O)O)C3)cn2)c1COC(=O)N(C)CCC(C)C [Example 45] | 5.2 nM | –
16 | CCC(CC)N(C)C(=O)OCc1c(C)noc1-c1ccc(O[C@H]2CCC[C@H](C(=O)O)C2)c(C)n1 [Example 13] | 53 nM | –
17 | CCCCN(C)C(=O)OCc1c(C)noc1-c1ccc(O[C@H]2CCC[C@H](C(=O)O)C2)cc1 [Example 2, (1S,3S)-3-(4-(4-(((butyl(methyl)carbamoyl)oxy)methyl)-3-methylisoxazol-5-yl)phenoxy) cyclohexane-1-carboxylic Acid] | 28 nM | –
18 | CCCCN(C)C(=O)OCc1c(C)noc1-c1ccc(O[C@H]2CCC[C@H](C(=O)O)C2)c(C)n1 [Example 15] | 15 nM | –
19 | Cc1nc(-c2onc(C)c2COC(=O)N(C)Cc2cccc(Cl)c2)ccc1O[C@H]1CCC[C@H](C(=O)O)C1 [Example 17] | 399 nM | –
20 | Cc1noc(-c2ccc(O[C@@H]3CCC[C@@H](C(=O)O)C3)c(F)c2)c1COC(=O)N(C)C1CCCC1 [Example 38] | 26 nM | –
21 | Cc1noc(-c2ccc(O[C@@H]3CCC[C@@H](C(=O)O)C3)cc2)c1COC(=O)N(C)CCC1CCCC1 [Example 28] | 470 nM | –
22 | Cc1nc(-c2onc(C)c2COC(=O)N(C)C2CCCC2)ccc1O[C@H]1CCC[C@H](C(=O)O)C1 [Example 12] | 14 nM | –
23 | CCCCCN(C)C(=O)OCc1c(C)noc1-c1ccc(O[C@H]2CCC[C@H](C(=O)O)C2)c(C)n1 [Example 19] | 10 nM | –
24 | Cc1noc(-c2ccc(O[C@H]3CCC[C@H](C(=O)O)C3)cn2)c1COC(=O)N(C)CCC1CC1 [Example 43] | 15 nM | –

Row | SMILES | IC50 (read-out: hLPA1 IC50) | IC50 (read-out: LPA1 IC50)
25 | Cc1cc(-c2onc(C)c2COC(=O)N(C)C2CCCC2)ccc1O[C@H]1CCC[C@H](C(=O)O)C1 [Example 64] | – | 52 nM
26 | Cc1noc(-c2ccc(O[C@@H]3CCC[C@@H](CC(=O)O)C3)cc2)c1COC(=O)N(C)CCC(C)C [Example 49] | 1210 nM | –
27 | Cc1noc(-c2ccc(O[C@H]3CCC[C@](C)(C(=O)O)C3)cc2)c1COC(=O)N(C)C1CCCC1 (racemic) [Example 8, (±)-Trans-3-(4-(4-(((cyclopentyl(methyl)carbamoyl)oxy)methyl)-3-methylisoxazol-5-yl)phenoxy)-1-methylcyclohexanecarboxylic Acid] | 89 nM | –
28 | Cc1noc(-c2ccc(O[C@H]3CCC[C@H](C(=O)O)C3)cc2)c1C(C)OC(=O)N(C)[C@H](C)C1CC1 (stereo partly drawn) [Example 51] | 32 nM | –
29 | Cc1noc(-c2ccc(O[C@@H]3CCC[C@@](F)(C(=O)O)C3)cc2)c1COC(=O)N(C)C1CCCC1 [Example 6] | 103 nM | –
30 | Cc1noc(-c2ccc(O[C@H]3CCC[C@H](C(=O)O)C3)cn2)c1COC(=O)N(C)[C@H](C)C1CC1 [Example 42] | 20 nM | –
31 | Cc1noc(-c2ccc(O[C@H]3CCC[C@H](C(=O)O)C3)cc2)c1COC(=O)N(C)CCC1CCC1 (racemic) [Example 29] | 424 nM | –
32 | Cc1noc(-c2ccc(O[C@H]3CCC[C@@H](CC(=O)O)C3)cc2)c1COC(=O)N(C)C1CCCC1 [Example 48] | 1490 nM | –
33 | Cc1noc(-c2ccc(O[C@H]3CCC[C@H](C(=O)O)C3)cc2)c1COC(=O)N(C)CC1CC1 [Example 37] | 206 nM | –
34 | Cc1noc(-c2ccc(O[C@H]3CCC[C@H](C(=O)O)C3)cn2)c1COC(=O)N(C)[C@@H](C)C1CC1 [Example 41] | 46 nM | –
35 | Cc1nc(-c2onc(C)c2COC(=O)N(C)CCC2CC2)ccc1O[C@H]1CCC[C@H](C(=O)O)C1 [Example 10, (1S,3S)-3-((6-(4-((((2-Cyclopropylethyl)(methyl)carbamoyl)oxy)methyl)-3-methylisoxa-zol-5-yl)-2-methylpyridin-3-yl)oxy)cyclohexanecarboxylic Acid] | 11 nM | –
36 | Cc1nc(-c2onc(C)c2COC(=O)N(C)Cc2cccc(F)c2)ccc1O[C@H]1CCC[C@H](C(=O)O)C1 [Example 61] | – | 19 nM
37 | [2H]C([2H])([2H])N(C(=O)OCc1c(C)noc1-c1ccc(O[C@H]2CCC[C@H](C(=O)O)C2)cn1)[C@H](C)C1CC1 [Example 66] | 25 nM | –
38 | Cc1noc(-c2ccc(O[C@H]3CCC[C@H](C(=O)O)C3)cc2)c1COC(=O)N(C)CC1CCC1 [Example 34] | 82 nM | –
39 | Cc1nc(-c2onc(C)c2COC(=O)N(C)CC2CCC2)ccc1O[C@H]1CCC[C@H](C(=O)O)C1 [Example 11] | 13 nM | –
40 | Cc1noc(-c2ccc(O[C@H]3CCC[C@H](C(=O)O)C3)cc2)c1COC(=O)N1C[C@H]2C[C@H]2C1 [Example 35] | 1230 nM | –
41 | COCCN(C)C(=O)OCc1c(C)noc1-c1ccc(O[C@@H]2CCC[C@@H](C(=O)O)C2)cc1 [Example 72] | 472 nM | –
42 | Cc1noc(-c2ccc(O[C@H]3CCC[C@H](C(=O)O)C3)cc2)c1COC(=O)N(C)C1CCC1 [Example 36] | 102 nM | –
43 | Cc1noc(-c2ccc(O[C@H]3CCC[C@H](C(=O)O)C3)cn2)c1COC(=O)N(C)C1CC(C)(C)C1 [Example 70] | 23 nM | –
44 | Cc1noc(-c2ccc(O[C@H]3CCC[C@H](C(=O)O)C3)cn2)c1COC(=O)N(C)C(C1CC1)C1CC1 [Example 57] | – | 26 nM
45 | Cc1noc(-c2ccc(O[C@@H]3CCC[C@@H](CC(=O)O)C3)cc2)c1COC(=O)N(C)C1CCCC1 (racemic) [Example 47, (±)-(Trans)-2-(3-(4-(4-(((cyclopentyl(methyl)carbamoyl)oxy)methyl)-3-methylisoxazol-5-yl)phenoxy)cyclohexyl)acetic Acid] | 570 nM | –
46 | Cc1nc(-c2onc(C)c2COC(=O)N(C)CCC(C)C)ccc1O[C@H]1CCC[C@H](C(=O)O)C1 [Example 20] | 8 nM | –
47 | Cc1noc(-c2ccc(O[C@@H]3CCC[C@@](F)(C(=O)O)C3)cc2)c1COC(=O)N(C)C1CCCC1 (racemic) [Example 3] | 18 nM | –
48 | Cc1noc(-c2ccc(OC3CCCC(C#N)C3)cc2)c1COC(=O)N(C)C1CCCC1 (mixture of isomers) [Example 74, (5-(4-((3-cyanocyclohexyl)oxy)phenyl)-3-methylisoxazol-4-yl)methyl cyclopentyl(methyl)carbamate] | 3250 nM | –
